Experimental data from patent publication US10555954B2, “Hazardous agent injection system” (Antares Pharma, Inc., priority 2009, dated 2020).
Values joined by “and” are separate entries in the source; they are usually repeats but may differ in a detail not shown here. Equal entries are not always repeated. “Also recorded” adds a separate entry of the source. Where two headings read alike, the source gives them in different places.

What was measured:
[1] = tested on: patients with rheumatoid arthritis; conditions: 15 mg per week, cited from earlier work
[2] = tested on: patients with active rheumatoid arthritis; conditions: cited from earlier work; for patients achieving ACR20: 16 weeks, starting dose 15 mg per week; for time to achieve an ACR20 response: subgroup n=98; for ACR20 responders: subgroup ≥1 year since diagnosis with prior DMARDs or steroids (n=98)
[3] = Pharmacokinetics of methotrexate in plasma after subcutaneous injection with autoinjector or needle/syringe; conditions: for AUC(0-inf) / AUC(0-τ) / Tmax / T½ / AUC: plasma; for AUC(0-t): individual animals; for AUC: AUC(0-τ)
[4] = pediatric patients with juvenile rheumatoid arthritis, cited from earlier work
[5] = cited from earlier work
[6] = tested on: patients with rheumatoid arthritis; conditions: after switching from intramuscular to oral; cited from earlier work
[7] = tested on: rheumatoid arthritis patients; conditions: cited from earlier work
[8] = Autoinjector, Female, 12.5 mg SC, animals S5196028/S5195684/S5195757
[9] = Autoinjector, Male, 12.5 mg SC, animals S5196273/S5196559/S5196206
[10] = Syringe, Female, 12.5 mg SC, animals S5196028/S5195684/S5195757
[11] = Syringe, Male, 12.5 mg SC, animals S5196273/S5196559/S5196206

**Q.** For `CN(Cc1cnc2nc(N)nc(N)c2n1)c1ccc(C(=O)N[C@@H](CCC(=O)O)C(=O)O)cc1` [Methotrexate, L-(+)-N-[p-[[(2,4-Diamino-6-pteridinyl)methyl]methylamino]-benzoyl]glutamic acid], which “average DAS28” value ([1]; after switch from oral to intramuscular administration) is on record?
**A.** Its value is 5.2.

**Q.** And the “average DAS28” value ([1]; before switch from oral to intramuscular administration)?
**A.** Its value is 5.6.

**Q.** And the “patients achieving ACR20” value ([2]; oral)?
**A.** The value was 77%.

**Q.** What about the “time to achieve an ACR20 response” value ([2]; oral) of the same compound?
**A.** Its value is 6 weeks.

**Q.** And the ACR20 responders ([2]; oral)?
**A.** Its ACR20 responders is 63%.

**Q.** What about the “further ACR20 non-responders with positive ACR20 response” value ([2]; subcutaneous dosage increased from 15 mg to 20 mg) of the same compound?
**A.** Its value is 23%.

**Q.** What about the “patients achieving ACR20” value ([2]; subcutaneous) of the same compound?
**A.** The value was 85%.

**Q.** What about the “time to achieve an ACR20 response” value ([2]; subcutaneous) of the same compound?
**A.** The value was 4 weeks.

**Q.** What about the ACR20 responders ([2]; subcutaneous) of the same compound?
**A.** The ACR20 responders was 89%.

**Q.** What about the “ACR20 non-responders with positive ACR20 response after switch” value ([2]; switched from 15 mg oral to 15 mg subcutaneous at 16 weeks) of the same compound?
**A.** Its value is 30%.

**Q.** What about the “difference in exposure / PK parameters between males and females” value ([3]; 12.5 mg SC, both devices) of the same compound?
**A.** Its value is “no marked difference; also recorded: no marked sex-related differences”.

**Q.** What about the “exposure with autoinjector compared to needle/syringe” value ([3]; 12.5 mg SC, male and female minipigs) of the same compound?
**A.** The value was “very similar; also recorded: comparable”.

**Q.** What about the “AUC(0-inf)” value [3, 8] of the same compound?
**A.** Its value is 1859 ng·mL·h.

**Q.** What about the “AUC(0-τ)” value [3, 8] of the same compound?
**A.** The value was 1857 ng·mL·h.

**Q.** What about the Tmax [3, 8] of the same compound?
**A.** Its Tmax is 15 min.

**Q.** And the T½ [3, 8]?
**A.** Its T½ is 237 min and 196 min.

**Q.** What about the “AUC(0-t)” value ([3]; Autoinjector, Female, Day 8) of the same compound?
**A.** The value was 2498 ng·h/mL and 1857 ng·h/mL.

**Q.** What about the T½ ([3]; Autoinjector, Male, 12.5 mg SC, Mean) of the same compound?
**A.** The T½ was 115 min.

**Q.** What about the Tmax ([3]; Autoinjector, Male, 12.5 mg SC, Median) of the same compound?
**A.** Its Tmax is 15 min.

**Q.** And the “AUC(0-inf)” value [3, 9]?
**A.** The value was 1903 ng·mL·h and 1407 ng·mL·h.

**Q.** And the Tmax [3, 9]?
**A.** The Tmax was 15 min.

**Q.** What about the T½ [3, 9] of the same compound?
**A.** The T½ was 120 min.

**Q.** And the “AUC(0-t)” value ([3]; Needle/Syringe, Female, Day 1)?
**A.** The value was 2378 ng·h/mL and 1831 ng·h/mL.

**Q.** And the Tmax ([3]; Syringe, Female, 12.5 mg SC, Median)?
**A.** The Tmax was 15 min.

**Q.** And the “AUC(0-inf)” value [3, 10]?
**A.** Its value is 2675 ng·mL·h and 1832 ng·mL·h.

**Q.** And the Tmax [3, 10]?
**A.** Its Tmax is 15 min.

**Q.** And the Tmax ([3]; Syringe, Male, 12.5 mg SC, Median)?
**A.** The Tmax was 15 min.

**Q.** And the T½ ([3]; Syringe, Male, 12.5 mg SC, animal S5196559)?
**A.** Its T½ is 115 min.

**Q.** What about the “AUC(0-τ)” value [3, 11] of the same compound?
**A.** Its value is 2464 ng·mL·h and 2016 ng·mL·h.

**Q.** And the Tmax [3, 11]?
**A.** Its Tmax is 15 min and 30 min.

**Q.** And the “time at which maximal plasma concentrations were generally observed” value ([3]; both devices, first collection time point)?
**A.** The value was 0.25 h.

**Q.** And the AUC(0-inf) ([3]; female, Gottingen, minipig, sc, 12.5 mg, AUC(0-inf), Autoinjector, 12.5 mg SC, Mean)?
**A.** Its AUC(0-inf) is 2510 ng·h/mL.

**Q.** What about the AUC(0-inf) ([3]; female, Gottingen, minipig, sc, 12.5 mg, AUC(0-inf), Autoinjector, 12.5 mg SC, animals S5196028/S5195684/S5195757) of the same compound?
**A.** Its AUC(0-inf) is 3170 ng·h/mL.

**Q.** And the AUC(0-inf) ([3]; female, Gottingen, minipig, sc, 12.5 mg, AUC(0-inf), Syringe, 12.5 mg SC, Mean)?
**A.** The AUC(0-inf) was 2300 ng·h/mL.

**Q.** What about the AUC(0-inf) ([3]; female, Gottingen, minipig, sc, 12.5 mg, AUC(0-inf), Syringe, 12.5 mg SC, animals S5196028/S5195684/S5195757) of the same compound?
**A.** Its AUC(0-inf) is 2380 ng·h/mL.

**Q.** And the AUC ([3]; female, Gottingen, minipig, sc, 12.5 mg, Syringe, 12.5 mg SC, animals S5196028/S5195684/S5195757)?
**A.** The AUC was 1830 ng·h/mL.

**Q.** And the AUC(0-inf) ([3]; male, Gottingen, minipig, sc, 12.5 mg, AUC(0-inf), Autoinjector, 12.5 mg SC, Mean)?
**A.** The AUC(0-inf) was 1490 ng·h/mL.

**Q.** And the AUC(0-inf) ([3]; male, Gottingen, minipig, sc, 12.5 mg, AUC(0-inf), Autoinjector, 12.5 mg SC, animals S5196273/S5196559/S5196206)?
**A.** The AUC(0-inf) was 1160 ng·h/mL.

**Q.** And the AUC(0-inf) ([3]; male, Gottingen, minipig, sc, 12.5 mg, AUC(0-inf), Syringe, 12.5 mg SC, animal S5196559)?
**A.** The AUC(0-inf) was 2470 ng·h/mL.

**Q.** What about the AUC ([3]; male, Gottingen, minipig, sc, 12.5 mg, Syringe, 12.5 mg SC, Mean) of the same compound?
**A.** The AUC was 1940 ng·h/mL.

**Q.** And the AUC ([3]; male, Gottingen, minipig, sc, 12.5 mg, Syringe, 12.5 mg SC, animals S5196273/S5196559/S5196206)?
**A.** Its AUC is 1320 ng·h/mL.

**Q.** And the “average mean serum concentration” value ([4]; about 1 hour)?
**A.** The value was “about 0.59 μM”.

**Q.** And the “average mean serum concentration” value ([4]; about 2 hours)?
**A.** The value was “about 0.44 μM”.

**Q.** What about the “average mean serum concentration” value ([4]; about 3 hours) of the same compound?
**A.** The value was “about 0.29 μM”.

**Q.** What about the “peak serum concentrations and bioavailability, intramuscular versus subcutaneous” value ([5]; Brooks et al., 12.5 mg to 25 mg per week) of the same compound?
**A.** Its value is “similar”.

**Q.** What about the “fall of total absorption after oral administration, maintenance versus starting dosage” value ([5]; Hamilton et al., start 7.5 mg per week, maintenance average 17 mg per week, 21 rheumatoid arthritis patients) of the same compound?
**A.** Its value is “about 13.5%”.

**Q.** What about the patients reporting nausea [6] of the same compound?
**A.** Its patients reporting nausea is 48%.

**Q.** What about the “patients judged to have moderate or marked improvement” value ([7]; 10 mg to 15 mg intramuscular once a week, 78 patients) of the same compound?
**A.** Its value is “Eighty-two”.

**Q.** What about the “patients who deteriorated after switching to oral methotrexate” value ([7]; improved after switching back to intramuscular) of the same compound?
**A.** The value was 10 of 48 patients.
